Assay results from ChEMBL document CHEMBL1926585, “Triterpenoids with rare carbon skeletons from Salvia hydrangea: antiprotozoal activity and absolute configurations” (J Nat Prod, 2011).

Key:
Plasmodium falciparum = test: Antiplasmodial activity against Plasmodium falciparum K1; type: functional, organism-based
[1] = Selectivity index, ratio of IC50 for rat L6 cells to IC50 for Plasmodium falciparum K1; type: toxicity, cell-based; details: L6 cells versus Plasmodium falciparum K1, read-out: Ratio IC50
[2] = system: Trypanosoma brucei rhodesiense; test: Antitrypanosomal activity against Trypanosoma brucei rhodesiense STIB900; type: functional, organism-based
[3] = Selectivity index, ratio of IC50 for rat L6 cells to IC50 for Trypanosoma brucei rhodesiense STIB900; type: toxicity, cell-based; details: L6 cells versus Trypanosoma brucei rhodesiense STIB900, read-out: Ratio IC50
L6 = test: Cytotoxicity against rat L6 cells; type: cell-based

| IC50 (Plasmodium falciparum) [µM] | IC50 [2] [µM] | Compound | selectivity ratio [1] | selectivity ratio [3] | IC50 (L6) [µM] |
| --- | --- | --- | --- | --- | --- |
| 0.18 | 15.9 | CC1=CC(=O)[C@@]23CC[C@@H]4C(C)(C)CCC[C@@]45C[C@]24[C@@H]1C[C@H]1C(C)(C)OC(=C(C(C)C)C3=O)[C@]14O5 [PEROVSKONE B] | 69.6 | 0.78 | 5.77 |
| 1.43 | 4.33 | C=CC1=C[C@@H]2[C@@H]3[C@]4(C(C)C)C(=O)[C@]5(CC[C@H]6C(C)(C)CCC[C@]67C[C@]25[C@@](OC[C@@]3(C)O)(O7)C4=O)C1 [SALVADIONE C] | 86.6 | 43.2 | > 90 |
